{"source": "patent US20050234073A1", "about": "“Methods of inhibiting inflammation” (priority 2003, published 2005)", "key": {"MODE-K cells": {"test_system": "MODE-K cells", "assay": "MODE-K cell presentation of α-galcer to DN32 cells (IL-2 ELISA)", "assay_type": "cell-based, mouse", "conditions": "MODE-K cells incubated with inhibitor (10 uM)", "experimental": "FIG. 17A is a bar chart showing IL-2 production of MODE-K cells cultured in the presence of BMS212122 (MTPi) or vehicle were incubated with α-galcer for 3 hours, washed, and co cultured with DN32 cells. IL-2 concentrations were measured by ELISA of 24 hour culture supernatants.\n(§1) APCs were incubated with 100 ng/mL α-galcer (kindly provided by Dr. H. Ploegh) for 3 hours, washed three times in PBS and aliquoted into a 96 well plate at 10^6 cells/mL. DN32 cells were added at 1:1 E:T ratio unless otherwise indicated. CD4^+ cells were isolated from spleens of OT-II transgenic mice using positive selection on CD4 magnetic beads (Miltenyi Biotec) and incubated with APCs and 100 μg/mL ovalbumin. The 24.8 NKT cell line was incubated with APCs in the absence of added antigen at E:T=2:1 unless otherwise indicated. Mouse IL-2 production was assessed by ELISA (OptEIA, BD PharMingen) of 24 or 40 hour culture supernatants. APCs were treated with BMS212122 (10 uM dissolved in DMSO; kindly provided by Bristol Myers Squibb, New Jersey) as indicated and washed prior to addition of T or NKT cells. […]\nThe relationship between MTP and CD1d in large intestinal epithelial cells (IECs) was determined. […]"}, "moDCs [1]": {"test_system": "moDCs", "assay": "Flow cytometry of surface CD1d and MHC class I on human monocyte-derived DCs", "assay_type": "cell-based", "conditions": "moDCs after 5 days in presence of inhibitor", "source_text": "FIG. 20F is a series of flow cytometric analysis showing surface staining of human monocyte-derived DCs were stained with 42.1 (CD1d), anti-HLA-A,B,C (MHC class I), or isotype control antibodies (dashed lines) after 4 days of differentiation in the presence of BMS212122 (gray lines) or vehicle control (black lines).\n(§2) Bone marrow was extracted from the femurs of C57BL6 or MTPmx1cre mice, washed once in PBS and resuspended in R10 supplemented with culture supernatant from murine GM-CSF transfected cells for a final concentration of 200 U/mL GM-CSF. BMDCs were then cultured in bacteriological plates for 12-14 days as described. Differentiated cells were harvested by gentle pipetting, washed in PBS, and analyzed by flow cytometry for surface expression of CD11c and I-A^b. […] After 5 days cells were dislodged by gentle pipetting, analyzed by flow cytometry and assayed for antigen presentation.\nMouse cells were stained using the following antibodies: FITC-conjugated α-CD1d (1B1, PharMingen); PE-conjugated α-CD11c (HL3, PharMingen); FITC-conjugated α-1-A^d (AMS-32.1, PharMingen); PE-conjugated α-CD69 (H1.2F3, PharMingen); PE-conjugated α-B220 (RA3-6B2, PharMingen). […] Staining was performed in the presence of Via-Probe (PharMingen) and analyzed with a FACSort flow cytometer (Becton Dickinson). […]"}, "moDCs [2]": {"test_system": "moDCs", "assay": "Human moDC presentation of α-galcer to DN32 iNKT cells (IL-2 ELISA)", "assay_type": "cell-based", "conditions": "moDCs differentiated in presence of inhibitor", "experimental": "FIG. 20G is a line graph showing IL-2 production in human moDCs differentiated in the presence of BMS212122 (◯) or vehicle (●) were incubated with α-galcer. IL-2 concentrations were measured by ELISA of 24 hour culture supernatants. *, p<0.05; **, p<0.01.\nas §1, with “supernatants.” for “supernatants. APCs were treated with BMS212122 (10 uM dissolved in DMSO; kindly provided by Bristol Myers Squibb, New Jersey) as indicated and washed prior to addition of T or NKT cells.”\nas §2, with “BMDCs were then cultured in bacteriological plates for 12-14 days as described.” left out, “presentation. […]” for “presentation.”"}}, "data": [{"compound": "Cc1ccc2c(nc(C)n2CCCCC2(C(=O)NCC(F)(F)F)c3ccccc3-c3ccccc32)c1NC(=O)c1ccccc1-c1ccc(C(F)(F)F)cc1", "note": "[BMS212122, 9-[4-[2,5-Dimethyl-4-[[[4′-(trifluoromethyl)[1,1′-biphenyl]-2-yl]carbonyl]amino]-1H-benzimidazol-1-yl]butyl]-N-(2,2,2-trifluoroethyl)-9H-fluorene-9-carboxamide]", "values": [{"measurement": "presentation of α-galcer to DN32 cells", "setting": "MODE-K cells", "result": "decreased"}, {"measurement": "surface CD1d mean fluorescence intensity", "setting": "moDCs [1]; vehicle 4.2, p<0.05", "result": 3.3}, {"measurement": "MHC class I mean fluorescence intensity", "setting": "moDCs [1]; vehicle 70", "result": 76}, {"measurement": "capacity to present α-galcer to DN32 iNKT cells", "setting": "moDCs [2]", "result": "reduced capacity"}]}]}
